Legend:
[1] = test system: HEK293E cells; test: Influence of 2-aminopurine on IgG batch yield (ELISA) of transiently transfected cells; type: cell-based; conditions: with 3 mmol/l sodium butyrate, day 18
[2] = test system: HEK293E cells; test: Influence of sodium butyrate on IgG batch yield (ELISA) of transiently transfected cells; conditions: day 14
[3] = test system: CHO DG44 cells; test: Influence of temperature and sodium butyrate on IgG batch yield (ELISA) of transiently transfected cells; type: cell-based; conditions: 2 mmol/l NaBut, peak value during 18 day cultivation
Method: After that time, 18 ml of ProCHO5 medium were added. The cells were then equally distributed into 4 new 50-ml filter tubes (i.e., 5 ml of cell suspension in each tube) and treated as follows:
Tubes 8.1 and 8.3: Addition of sodium butyrate to a final concentration of 2 mmol/l
Tubes 8.2 and 8.4: No addition of sodium butyrate.

SMILES | Batch yield ([1]; 5 mmol/l 2-aminopurine) [mg/L] | Batch yield ([1]; 10 mmol/l 2-aminopurine) [mg/L] | Batch yield ([2]; 1 mmol/l NaBut) [mg/L] | Batch yield ([2]; 2 mmol/l NaBut) [mg/L] | Batch yield ([2]; 3 mmol/l NaBut) [mg/L] | Batch yield ([2]; 6 mmol/NaBut) [mg/L] | Batch yield ([2]; 12 mmol/l NaBut) [mg/L] | Maximum batch yield ([3]; 31° C.) [mg/L] | Maximum batch yield ([3]; 37° C.) [mg/L]
Nc1ncc2[nH]cnc2n1 [2-aminopurine] | 628 | 708 |  |  |  |  |  |  | 
CCCC(=O)[O-].[Na+] [NaBut, sodium butyrate] |  |  | 419 | 632 | 673 | 447 | 288 | 231 | 218

Source: patent US20080145893A1, “Method for producing a recombinant protein at high specific productivity, high batch yield and high volumetric yield by means of transient transfection” (EXCELLEGENE SA, priority 2006, published 2008)
